Here are results for 8 molecules from patent US6545049B1, “Dimer-selective RXR modulators and methods for their use” (Ligand Pharmaceuticals Incorporated, priority 1995, dated 2003).

For data set [1], the target named is T1, RXRα (Homo sapiens, UniProt P19793).
T1 sequence (P19793 1-462): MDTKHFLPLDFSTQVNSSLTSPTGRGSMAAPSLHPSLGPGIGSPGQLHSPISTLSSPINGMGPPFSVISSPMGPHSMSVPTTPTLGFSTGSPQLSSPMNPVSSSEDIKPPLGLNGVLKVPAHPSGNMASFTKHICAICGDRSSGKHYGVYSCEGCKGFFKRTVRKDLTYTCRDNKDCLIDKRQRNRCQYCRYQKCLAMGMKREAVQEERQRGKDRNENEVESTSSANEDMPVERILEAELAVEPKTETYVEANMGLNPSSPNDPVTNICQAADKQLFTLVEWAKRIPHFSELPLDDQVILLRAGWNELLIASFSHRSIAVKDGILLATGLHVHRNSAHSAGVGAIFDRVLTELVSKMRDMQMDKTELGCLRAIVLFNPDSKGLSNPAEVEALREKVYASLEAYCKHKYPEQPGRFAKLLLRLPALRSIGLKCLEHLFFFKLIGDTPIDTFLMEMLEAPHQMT
Nature of the data set: RXR binding, RXRα. The conditions noted are these: -v- tritiated LGD1069 and tritiated 9-cis retinoic acid. On the procedure: (§1) Non-specific binding was defined as that binding remaining in the presence of 500 nM of the appropriate unlabelled compound. At the end of the incubation period, bound from free ligand were separated. The amount of bound tritiated retinoids was determined by liquid scintillation counting of an aliquot (700 μL) of the supernatant fluid or the hydroxylapatite pellet.
(§2) After correcting for non-specific binding, IC50 values were determined. […] The IC50 value was determined graphically from a log-logit plot of the data. The Kd values were determined by application of the Cheng-Prussof equation to the IC50 values, the labeled ligand concentration and the Kd of the labeled ligand.

For data set [2], the target named is T2, RXRβ (Mus musculus, UniProt P28704).
T2 sequence (P28704 1-520): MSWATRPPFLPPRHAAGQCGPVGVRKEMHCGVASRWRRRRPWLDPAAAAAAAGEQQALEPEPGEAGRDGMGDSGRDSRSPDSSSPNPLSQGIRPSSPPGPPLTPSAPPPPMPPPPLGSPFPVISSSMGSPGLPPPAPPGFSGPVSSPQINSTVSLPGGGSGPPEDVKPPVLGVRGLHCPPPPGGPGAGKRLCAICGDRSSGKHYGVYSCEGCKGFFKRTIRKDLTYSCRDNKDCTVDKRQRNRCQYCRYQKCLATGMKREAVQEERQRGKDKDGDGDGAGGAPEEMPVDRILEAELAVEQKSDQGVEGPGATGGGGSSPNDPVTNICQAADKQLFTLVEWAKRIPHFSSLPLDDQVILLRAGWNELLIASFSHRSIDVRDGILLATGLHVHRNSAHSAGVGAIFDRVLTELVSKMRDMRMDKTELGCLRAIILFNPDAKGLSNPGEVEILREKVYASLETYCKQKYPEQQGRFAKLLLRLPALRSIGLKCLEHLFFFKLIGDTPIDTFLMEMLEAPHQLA
Kind of data set: RXR binding, RXRβ. The settings on record: -v- tritiated LGD1069 and tritiated 9-cis retinoic acid. As for the experimental part:
as §1, §2

Data set [3] concerns the target T3, RXRγ (Mus musculus, UniProt P28705).
T3 sequence (P28705 1-463): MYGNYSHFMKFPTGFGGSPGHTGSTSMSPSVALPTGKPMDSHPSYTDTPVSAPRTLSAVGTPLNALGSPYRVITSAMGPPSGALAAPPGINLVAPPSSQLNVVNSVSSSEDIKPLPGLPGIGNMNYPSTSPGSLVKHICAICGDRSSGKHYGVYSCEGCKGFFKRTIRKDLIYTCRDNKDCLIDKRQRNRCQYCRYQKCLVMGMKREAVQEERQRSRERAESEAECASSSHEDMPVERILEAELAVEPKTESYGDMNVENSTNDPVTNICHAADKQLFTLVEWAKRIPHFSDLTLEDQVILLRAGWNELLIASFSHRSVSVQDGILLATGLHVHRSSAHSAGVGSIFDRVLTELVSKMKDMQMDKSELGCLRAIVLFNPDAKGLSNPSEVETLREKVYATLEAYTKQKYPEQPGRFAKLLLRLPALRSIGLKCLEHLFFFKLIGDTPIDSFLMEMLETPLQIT
Nature of the data set: RXR binding, RXRγ. The settings on record: -v- tritiated LGD1069 and tritiated 9-cis retinoic acid. As for the experimental part: as §1, §2

For another data set, the target named is T4, RXR:RXR homodimer (Homo sapiens, UniProt P19793).
T4 sequence (P19793 1-462): T1 sequence (P19793 1-462)
Kind of data set: RXR homodimer co-transfection assay (FIG. 1). The settings on record: in the presence of known RXR activators (LGD1069, LG100268, 9-cis retinoic acid).

The target of data set [4] is T1, RXRα. Nature of the data set: RXR homodimer co-transfection assay, antagonist mode, RXRα. The settings on record: read-out: RXRα Potency IC50; antagonist potency in the presence of the known RXR agonist LGD1069; CV-1 cells.
Data set [5] has as its target T2, RXRβ. Kind of data set: RXR homodimer co-transfection assay, antagonist mode, RXRβ. The conditions noted are these: read-out: RXRβ Potency IC50; antagonist potency in the presence of the known RXR agonist LGD1069; CV-1 cells.
Data set [6] concerns the target T3, RXRγ. Nature of the data set: RXR homodimer co-transfection assay, antagonist mode, RXRγ. The conditions noted are these: read-out: RXRγ Potency IC50; antagonist potency in the presence of the known RXR agonist LGD1069; CV-1 cells.
The target in another data set is T5, RXRα:PPARα heterodimer (Homo sapiens, UniProt P19793).
T5 sequence (P19793 1-462): T1 sequence (P19793 1-462)
T5 sequence (Q07869 1-468 partner): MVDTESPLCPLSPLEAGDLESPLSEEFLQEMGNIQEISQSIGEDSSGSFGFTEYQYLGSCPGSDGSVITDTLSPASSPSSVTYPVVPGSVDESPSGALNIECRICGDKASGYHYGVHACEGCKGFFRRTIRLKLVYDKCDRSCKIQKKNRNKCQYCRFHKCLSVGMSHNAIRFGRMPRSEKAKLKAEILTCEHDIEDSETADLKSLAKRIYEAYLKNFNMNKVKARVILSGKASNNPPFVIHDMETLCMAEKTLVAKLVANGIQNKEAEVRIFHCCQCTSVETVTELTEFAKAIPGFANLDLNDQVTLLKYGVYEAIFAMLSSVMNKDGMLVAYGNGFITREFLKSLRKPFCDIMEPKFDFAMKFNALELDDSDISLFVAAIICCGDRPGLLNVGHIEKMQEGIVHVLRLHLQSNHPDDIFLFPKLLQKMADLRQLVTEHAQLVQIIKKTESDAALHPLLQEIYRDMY
Kind of data set: RXR heterodimer co-transfection assay (RXRα and PPARα, PPARα response element reporter). The settings on record: for Fold activation: normalized luciferase values at 10−5M divided by values with vehicle.

The next data set has as its system NB4 cells. Kind of data set: NB4 myeloid leukemic cell differentiation. Format: cell-based. The settings on record: Compound 122 1 mM, TTNPB, 9-cis retinoic acid, LG100268 100 nM, FIG. 3. As for the experimental part:
All points were performed in triplicate for each experiment and varied less than 20%. Each experiment was repeated at least three times with similar results.

A further data set deals with T6, RXRα:RXRα homodimer (Homo sapiens, UniProt P19793).
T6 sequence (P19793 227-458 limits assumed): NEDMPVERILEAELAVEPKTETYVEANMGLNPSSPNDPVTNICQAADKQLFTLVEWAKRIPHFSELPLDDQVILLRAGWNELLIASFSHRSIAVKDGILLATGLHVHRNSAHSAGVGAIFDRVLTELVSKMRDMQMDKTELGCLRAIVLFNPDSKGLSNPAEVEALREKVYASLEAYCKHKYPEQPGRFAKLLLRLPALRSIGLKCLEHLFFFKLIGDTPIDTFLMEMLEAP
Kind of data set: Gal4-receptor chimera transactivation assay, RXR homodimer.

A further data set concerns the target T7, RXRα:RARα heterodimer (Homo sapiens, UniProt P19793).
T7 sequence (P19793 227-458 limits assumed): T6 sequence (P19793 227-458 limits assumed)
T7 sequence (P10276 183-417 partner limits assumed): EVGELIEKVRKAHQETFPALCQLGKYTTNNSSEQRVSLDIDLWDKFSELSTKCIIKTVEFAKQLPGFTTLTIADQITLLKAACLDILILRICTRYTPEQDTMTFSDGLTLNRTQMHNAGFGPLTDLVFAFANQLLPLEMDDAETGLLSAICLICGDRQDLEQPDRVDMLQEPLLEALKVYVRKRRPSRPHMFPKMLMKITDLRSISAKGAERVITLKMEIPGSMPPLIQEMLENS
Kind of data set: Gal4-receptor chimera transactivation assay, RXRα:RARα heterodimer.

Entries after “also recorded” stand apart in the source; their conditions may differ.

What is called Kd is the equilibrium constant for the complex coming apart. Read a high Kd as a looser complex. Broadly, the IC50 is the concentration that inhibits the measured activity by half. What is called EC50 is the concentration that produces a half-maximal response. The melting point is the temperature of the solid-liquid transition.

Method for RXRα:RARα heterodimer: (§3) Briefly, CV-1 cells were transfected in 12 well multi-well plates using 0.1 μg of each receptor and 0.5 μg of reporter per well. Each well was also transfected with 0.5 μg of the β-Gal expression plasmid as an internal control for transfection efficiency. Total plasmid per well was 2 μg made up using the plasmid pGEM. […] Receptor ligand binding domains (LBDs) were fused in-frame downstream to the Gal4 cDNA to produce Gal4-receptor fusion proteins. To express only the receptor LBDs, the LBD was cloned directly downstream to the CMV promoter.
Cells were then washed 2X with PBS and lysed using Promega lysis buffer and assayed for luciferase activity and β-galactosidase activity. All results were normalized against β-Gal.
The above assay system was used because reporter activity is dependent upon the binding of the Gal4 DNA binding domain to copies of its binding site, the UAS (upstream activation sequence), located upstream of the luciferase cDNA. […] Since endogenous receptors lack the Gal4 DNA binding domain, no background activation of the reporter is observed, however, Gal4-receptor LBD fusion proteins can bind the Gal4 site and be activated in a receptor ligand dependent manner. This system, therefore, completely eliminates the low background activity of endogenous receptors in CV-1 cells making it possible to test compound activity on exogenously added receptors.
Method for RXRα:RXRα homodimer: as §3
Cells were then washed 2X with PBS and lysed using Promega lysis buffer and assayed for luciferase activity and β-galactosidase activity. All results were normalized against β-Gal. Each set was done in triplicates and each experiment was carried out at least 3 separate times with similar results.

“4-[(3-hexyloxy-5,6,7,8-tetrahydro-5,5,8,8-tetramethyl-2-naphthyl)carbonyl]benzoic acid oxime [Compound 114]”: the Kd on RXRα [1] is 9 nM; at RXRβ [2], 12 nM; on RXRγ [3] it was 38 nM. Moreover, at RXR:RXR homodimer, the “antagonism of RXR homodimer transactivation (in words)” value (“antagonism” below) is given as “function as antagonists”. Besides, the IC50 turned out to be 126 nM at RXRα [4], 197 nM on RXRβ [5] and 206 nM on RXRγ [6]. The same molecule displayed a Fold activation on RXRα:PPARα heterodimer of 4 fold. For the same molecule, on RXRα:PPARα heterodimer (read-out: EC50 (agonist potency), CV-1 cell transfected with both RXRα and PPARα), the EC50 came to 200 nM.
`CC1=C(/C=C/C(C)=C\C=C\C(C)=C\C(=O)O)C(C)(C)CCC1` [9-cis retinoic acid]: the “differentiation of NB4 cells (in words)” value in the data set on NB4 cells is given as “stimulate NB4 cells to differentiate”.
With `CCCOc1cc2c(cc1\C(C)=C/C=C/C(C)=C/C(=O)O)C(C)(C)CCC2(C)C` [Compound 122, (2E, 4E, 6Z)-7-[3-propoxy-5,5,8,8-tetramethyl-5,6,7,8-tetrahydro-2-naphthalen-2-yl]-3-methylocta-2,4,6-trienoic acid], the Kd on RXRβ [2] worked out at 29 nM; on RXRγ [3] it was 33 nM. The “differentiation of NB4 cells (in words)” value in the data set on NB4 cells was “stimulate NB4 cells to differentiate; also recorded: equally, if not more effective in promoting differentiation of NB4 cells”.
On to `C/C(=C/C=C/C(C)=C/C(=O)O)c1cc2c(cc1OCc1ccc(C)cc1)C(C)(C)CCC2(C)C` [Compound 130, (2E, 4E, 6Z)-7-[3-(4-methylbenzyloxy)-5,6,7,8-tetrahydro-5,5,8,8-tetramethyl-2-naphthalen-2-yl]-3-methylocta-2,4,6-trienoic acid], for which, on RXRα:RXRα homodimer (CV-1 cells, 100 nM LG100268, LGD1069, 500 nM Compounds 117, 122, 130, 1 mM Compound 131, n.e. = no effect), the “Fold activation” value is recorded as “n.e”. For the same molecule, the “agonist activity on RXR homodimers in the GAL4 transfection assay (in words)” value at RXRα:RXRα homodimer (compound alone) is “inactive”. The “antagonist activity on RXR homodimers in the GAL4 transfection assay (in words)” value on RXRα:RXRα homodimer (in combination with either LGD1069 or LG100268) is “strong antagonists”. In addition, the “Fold Repression” value on RXRα:RXRα homodimer (in combination with either LGD1069 or LG100268, 500 nM Compounds 117, 122, 130, 1 mM Compound 131) is reported as 25-75 fold. Also, the “effect on RXRα:RARα heterodimer in combination with TTNPB (in words)” value on RXRα:RARα heterodimer (combined with the RXR:RAR activator TTNPB, data not shown) was “slight increase in activation”. Further, on RXRα:RARα heterodimer (compound alone), the “agonist activity on RXRα:RARα heterodimers (in words)” value was “potent agonists”.
On to `CC1(C)CCC(C)(C)c2cc3c(cc21)CCCN3Cc1ccc(C(=O)O)cc1` [Compound 135, 4-(3,4,6,7,8,9-hexahydro-6,6,9,9-tetramethyl-2H-benzo[g]quinolin-1-ylmethyl)benzoic acid], for which the melting point lay within 173 to 175 °C. Besides, binding at RXRα [1] was characterised by a dissociation constant (Kd) of 163 nM. On RXRβ [2], this molecule displayed a dissociation constant (Kd) of 155 nM. This molecule also displayed a dissociation constant Kd at RXRγ [3] of 181 nM. The “antagonism” value on RXR:RXR homodimer was “function as antagonists”. The same molecule registered a Fold activation at RXRα:PPARα heterodimer of 5 fold.
For the molecule `CCCCCCCOc1c(\C(C)=C/C=C/C(C)=C/C(=O)O)cc(C(C)C)cc1C(C)C` [Compound 147, (2E, 4E, 6Z)-7-(3,5-diisopropyl-2-n-heptyloxyphenyl)-3-methylocta-2,4,6-trienoic acid], the Kd on RXRα [1] stood at 3 nM; on RXRβ [2], 8 nM; on RXRγ [3] it was 6 nM. For the same molecule, the “antagonism” value on RXR:RXR homodimer is recorded as “especially potent antagonist”.
As to `Cc1cc2c(cc1C1(c3ccc(C(=O)O)cn3)CC1)C(C)(C)CCC2(C)C` [LG100268, 6-[1-(3,5,5,8,8-pentamethyl-5,6,7,8-tetrahydronaphthalen-2-yl)cyclopropyl]nicotinic acid], the “differentiation of NB4 cells (in words)” value is “does not promote NB4 differentiation” with NB4 cells and “does not” with NB4 cells (listed as LB100268).
With `C/C(=C\c1ccc(C(=O)O)cc1)c1ccc2c(c1)C(C)(C)CCC2(C)C` [TTNPB, (E)-4-[2-(5,6,7,8-tetrahydro-5,5,8,8-tetramethyl-2-naphthalenyl)-1-propenyl]benzoic acid], the “differentiation of NB4 cells (in words)” value in the data set on NB4 cells was “stimulate NB4 cells to differentiate”.
